This note sets out measurements from patent US20120121591A1 (priority 2009, published 2012).

Common to all, as to format: cell-based
Assay [1] relates to IL-2 secretion from T cells in human whole blood. Particulars: read-out: WB (IL-2) IC50 (nM, Avg).
The next assay has as its target hKv1.3 (Homo sapiens, UniProt P22001). Put plainly: cell-based. To be noted: Kv1.3 (IWQ) IC50 (nM, Avg).
The test system of assay [2] is IFN-g secretion from T cells in human whole blood. To be noted: read-out: WB (IFNg) IC50 (nM, Avg).

Sequence of hKv1.3 (P22001 whole entry): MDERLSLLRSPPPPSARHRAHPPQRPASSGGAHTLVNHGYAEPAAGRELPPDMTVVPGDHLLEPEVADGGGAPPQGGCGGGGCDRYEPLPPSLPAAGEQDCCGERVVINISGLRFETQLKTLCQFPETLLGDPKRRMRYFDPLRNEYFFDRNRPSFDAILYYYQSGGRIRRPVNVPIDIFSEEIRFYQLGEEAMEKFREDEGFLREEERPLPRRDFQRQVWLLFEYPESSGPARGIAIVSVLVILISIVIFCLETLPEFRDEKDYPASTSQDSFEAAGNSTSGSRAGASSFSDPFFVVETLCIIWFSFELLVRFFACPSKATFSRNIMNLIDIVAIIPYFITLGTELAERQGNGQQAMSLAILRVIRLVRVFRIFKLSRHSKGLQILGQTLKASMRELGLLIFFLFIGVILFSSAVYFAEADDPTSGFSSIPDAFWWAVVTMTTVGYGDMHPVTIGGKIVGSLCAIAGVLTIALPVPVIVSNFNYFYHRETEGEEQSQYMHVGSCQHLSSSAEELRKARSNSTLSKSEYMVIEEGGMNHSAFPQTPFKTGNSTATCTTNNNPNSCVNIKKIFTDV

For `CC[C@H](C)[C@@H]1NC(=O)[C@@H](NC(=O)[C@H](CO)NC(=O)[C@@H](N)CCCNC(=N)N)CSSC[C@@H](C(N)=O)NC(=O)[C@H]([C@@H](C)O)NC(=O)CNC(=O)[C@@H]2CSSC[C@@H]3NC(=O)[C@H](CCCCN)NC(=O)[C@H](Cc4ccccc4)NC(=O)[C@H](C)NC(=O)[C@H]([C@@H](C)O)NC(=O)[C@H](CSSC[C@H](NC(=O)[C@H](Cc4ccccc4)NC(=O)[C@H](CO)NC(=O)[C@H](CC(C)C)NC(=O)[C@H](CCCNC(=N)N)NC(=O)[C@H](Cc4ccc(O)cc4)NC(=O)[C@H](CCCCN)NC(=O)[C@H](CCSC)NC(=O)[C@H](CO)NC(=O)[C@H](Cc4c[nH]cn4)NC(=O)[C@H](CCCNC(=N)N)NC3=O)C(=O)N[C@@H](CCCCN)C(=O)N[C@@H](CCCNC(=N)N)C(=O)N[C@@H]([C@@H](C)O)C(=O)N2)NC(=O)[C@H](CCCNC(=N)N)NC(=O)[C@H](CO)NC(=O)[C@H](CCCCN)NC(=O)[C@@H]2CCCN2C(=O)[C@H]([C@@H](C)CC)NC(=O)[C@H]([C@@H](C)O)NC(=O)[C@H](CC(=O)O)NC1=O` [[Lys16, 29;Arg18,30]ShK-amide], the IC50 in assay [1] is 0.26 nM; against hKv1.3, 0.401 nM; in assay [2], 0.242 nM.
As for `CC[C@H](C)[C@@H]1NC(=O)[C@@H](NC(=O)[C@H](CO)NC(=O)[C@@H](N)CCCNC(=N)N)CSSC[C@@H](C(N)=O)NC(=O)[C@H]([C@@H](C)O)NC(=O)CNC(=O)[C@@H]2CSSC[C@@H]3NC(=O)[C@H](CCCCN)NC(=O)[C@H](Cc4ccccc4)NC(=O)[C@H](C)NC(=O)[C@H]([C@@H](C)O)NC(=O)[C@H](CSSC[C@H](NC(=O)[C@H](Cc4ccccc4)NC(=O)[C@H](Cc4ccccc4)NC(=O)[C@H](CC(C)C)NC(=O)[C@H](CCCNC(=N)N)NC(=O)[C@H](Cc4ccc(O)cc4)NC(=O)[C@H](CCCCN)NC(=O)[C@H](CCSC)NC(=O)[C@H](CO)NC(=O)[C@H](Cc4c[nH]cn4)NC(=O)[C@H](CCCCN)NC3=O)C(=O)N[C@@H](CCCCN)C(=O)N[C@@H](CCCCN)C(=O)N[C@@H]([C@@H](C)O)C(=O)N2)NC(=O)[C@H](CCCNC(=N)N)NC(=O)[C@H](CO)NC(=O)[C@H](CCCCN)NC(=O)[C@@H]2CCCN2C(=O)[C@H]([C@@H](C)CC)NC(=O)[C@H]([C@@H](C)O)NC(=O)[C@H](CC(=O)O)NC1=O` [[Lys16, 29;Phe26]ShK-amide], the IC50 is 1.42 nM in assay [1], 0.542 nM at hKv1.3 and 1.36 nM in assay [2].
For `CC[C@@H]1NC(=O)[C@H](CO)NC(=O)[C@H](Cc2c[nH]cn2)NC(=O)[C@H](CCCCN)NC(=O)[C@@H]2CSSC[C@@H]3NC(=O)[C@H]([C@@H](C)O)NC(=O)[C@H](CCCCN)NC(=O)[C@H](CCCNC(=N)N)NC(=O)[C@H](CSSC[C@H](NC(=O)[C@H](CCCNC(=N)N)NC(=O)[C@H](CO)NC(=O)[C@H](CCCCN)NC(=O)[C@@H]4CCCN4C(=O)[C@H]([C@@H](C)CC)NC(=O)[C@H]([C@@H](C)O)NC(=O)[C@H](CC(=O)O)NC(=O)[C@H]([C@@H](C)CC)NC(=O)[C@@H](NC(=O)[C@H](CO)NC(=O)[C@@H](N)CCCNC(=N)N)CSSC[C@@H](C(N)=O)NC(=O)[C@H]([C@@H](C)O)NC(=O)CNC3=O)C(=O)N[C@@H]([C@@H](C)O)C(=O)N[C@@H](C)C(=O)N[C@@H](Cc3ccccc3)C(=O)N[C@@H](CCCCN)C(=O)N2)NC(=O)[C@H](Cc2ccccc2)NC(=O)[C@H](CO)NC(=O)[C@H](CC(C)C)NC(=O)[C@H](CCCNC(=N)N)NC(=O)[C@H](Cc2ccc(O)cc2)NC(=O)[C@H](CCCCN)NC1=O` [[Lys16, Abu21]ShK-amide], the IC50 is 1.2 nM in assay [1], 0.246 nM on hKv1.3 and 1.53 nM in assay [2].
Regarding `CC[C@H](C)[C@@H]1NC(=O)[C@@H](NC(=O)[C@H](CO)NC(=O)[C@@H](N)CCCNC(=N)N)CSSC[C@@H](C(N)=O)NC(=O)[C@H]([C@@H](C)O)NC(=O)CNC(=O)[C@@H]2CSSC[C@@H]3NC(=O)[C@H](CCCCN)NC(=O)[C@H](Cc4ccccc4)NC(=O)[C@H](C)NC(=O)[C@H]([C@@H](C)O)NC(=O)[C@H](CSSC[C@H](NC(=O)[C@H](Cc4ccccc4)NC(=O)[C@H](CO)NC(=O)[C@H](CC(C)C)NC(=O)[C@H](CCCNC(=N)N)NC(=O)[C@H](Cc4ccc(O)cc4)NC(=O)[C@H](CCCCN)NC(=O)[C@H](CC(=O)O)NC(=O)[C@H](CO)NC(=O)[C@H](Cc4c[nH]cn4)NC(=O)[C@H](CCCCN)NC3=O)C(=O)N[C@@H](CCCNC(=N)N)C(=O)N[C@@H](CCCCN)C(=O)N[C@@H]([C@@H](C)O)C(=O)N2)NC(=O)[C@H](CCCNC(=N)N)NC(=O)[C@H](CO)NC(=O)[C@H](CCCCN)NC(=O)[C@@H]2CCCN2C(=O)[C@H]([C@@H](C)CC)NC(=O)[C@H]([C@@H](C)O)NC(=O)[C@H](CC(=O)O)NC1=O` [[Lys16, Asp21]ShK-amide], the IC50 in assay [1] was determined as 2.31 nM; on hKv1.3 it was 0.35 nM; in assay [2], 3.63 nM.
Take `CC[C@H](C)[C@@H]1NC(=O)[C@@H](NC(=O)[C@H](CO)NC(=O)[C@@H](N)CCCNC(=N)N)CSSC[C@@H](C(N)=O)NC(=O)[C@H]([C@@H](C)O)NC(=O)CNC(=O)[C@@H]2CSSC[C@@H]3NC(=O)[C@H](CCCCN)NC(=O)[C@H](Cc4ccccc4)NC(=O)[C@H](C)NC(=O)[C@H]([C@@H](C)O)NC(=O)[C@H](CSSC[C@H](NC(=O)[C@H](Cc4ccccc4)NC(=O)[C@H](CO)NC(=O)[C@H](CC(C)C)NC(=O)[C@H](CCCNC(=N)N)NC(=O)[C@H](Cc4ccc(O)cc4)NC(=O)[C@H](CCCCN)NC(=O)[C@H](CC4CCCCC4)NC(=O)[C@H](CO)NC(=O)[C@H](Cc4c[nH]cn4)NC(=O)[C@H](CCCCN)NC3=O)C(=O)N[C@@H](CCCNC(=N)N)C(=O)N[C@@H](CCCCN)C(=O)N[C@@H]([C@@H](C)O)C(=O)N2)NC(=O)[C@H](CCCNC(=N)N)NC(=O)[C@H](CO)NC(=O)[C@H](CCCCN)NC(=O)[C@@H]2CCCN2C(=O)[C@H]([C@@H](C)CC)NC(=O)[C@H]([C@@H](C)O)NC(=O)[C@H](CC(=O)O)NC1=O` [[Lys16, Cha21]ShK-amide]: the results for the IC50 (in assay [1]; against hKv1.3; in assay [2]) were 1.74 nM, 0.499 nM and 1.32 nM, respectively.
For the compound `CC[C@H](C)[C@@H]1NC(=O)[C@@H](NC(=O)[C@H](CO)NC(=O)[C@@H](N)CCCNC(=N)N)CSSC[C@@H](C(N)=O)NC(=O)[C@H]([C@@H](C)O)NC(=O)CNC(=O)[C@@H]2CSSC[C@@H]3NC(=O)[C@H](CCCCN)NC(=O)[C@H](Cc4ccccc4)NC(=O)[C@H](C)NC(=O)[C@H]([C@@H](C)O)NC(=O)[C@H](CSSC[C@H](NC(=O)[C@H](Cc4ccccc4)NC(=O)[C@H](CO)NC(=O)[C@H](CC(C)C)NC(=O)[C@H](CCCNC(=N)N)NC(=O)[C@H](Cc4ccc(O)cc4)NC(=O)[C@H](CCCCN)NC(=O)[C@H](C4CCCCC4)NC(=O)[C@H](CO)NC(=O)[C@H](Cc4c[nH]cn4)NC(=O)[C@H](CCCCN)NC3=O)C(=O)N[C@@H](CCCNC(=N)N)C(=O)N[C@@H](CCCCN)C(=O)N[C@@H]([C@@H](C)O)C(=O)N2)NC(=O)[C@H](CCCNC(=N)N)NC(=O)[C@H](CO)NC(=O)[C@H](CCCCN)NC(=O)[C@@H]2CCCN2C(=O)[C@H]([C@@H](C)CC)NC(=O)[C@H]([C@@H](C)O)NC(=O)[C@H](CC(=O)O)NC1=O` [[Lys16, Chg21]ShK-amide], the IC50 in assay [1] came out at 0.875 nM; against hKv1.3, 0.205 nM; in assay [2], 0.727 nM.
The like results for `CC[C@H](C)[C@@H]1NC(=O)[C@@H](NC(=O)[C@H](CO)NC(=O)[C@@H](N)CCCNC(=N)N)CSSC[C@@H](C(N)=O)NC(=O)[C@H]([C@@H](C)O)NC(=O)CNC(=O)[C@@H]2CSSC[C@@H]3NC(=O)[C@H](CCCCN)NC(=O)[C@H](Cc4ccccc4)NC(=O)[C@H](C)NC(=O)[C@H]([C@@H](C)O)NC(=O)[C@H](CSSC[C@H](NC(=O)[C@H](Cc4ccccc4)NC(=O)[C@H](CO)NC(=O)[C@H](CC(C)C)NC(=O)[C@H](CCCNC(=N)N)NC(=O)[C@H](Cc4ccc(O)cc4)NC(=O)[C@H](CCCCN)NC(=O)[C@H](CCC(N)=O)NC(=O)[C@H](CO)NC(=O)[C@H](Cc4c[nH]cn4)NC(=O)[C@H](CCCCN)NC3=O)C(=O)N[C@@H](CCCNC(=N)N)C(=O)N[C@@H](CCCCN)C(=O)N[C@@H]([C@@H](C)O)C(=O)N2)NC(=O)[C@H](CCCNC(=N)N)NC(=O)[C@H](CO)NC(=O)[C@H](CCCCN)NC(=O)[C@@H]2CCCN2C(=O)[C@H]([C@@H](C)CC)NC(=O)[C@H]([C@@H](C)O)NC(=O)[C@H](CC(=O)O)NC1=O` [[Lys16, Gln21]ShK-amide] were, in that order, 0.42 nM, 0.161 nM and 0.812 nM.
As for `CC[C@H](C)[C@@H]1NC(=O)[C@@H](NC(=O)[C@H](CO)NC(=O)[C@@H](N)CCCNC(=N)N)CSSC[C@@H](C(N)=O)NC(=O)[C@H]([C@@H](C)O)NC(=O)CNC(=O)[C@@H]2CSSC[C@@H]3NC(=O)[C@H](CCCCN)NC(=O)[C@H](Cc4ccccc4)NC(=O)[C@H](C)NC(=O)[C@H]([C@@H](C)O)NC(=O)[C@H](CSSC[C@H](NC(=O)[C@H](Cc4ccccc4)NC(=O)[C@H](CO)NC(=O)[C@H](CC(C)C)NC(=O)[C@H](CCCNC(=N)N)NC(=O)[C@H](Cc4ccc(O)cc4)NC(=O)[C@H](CCCCN)NC(=O)[C@H](CCSC)NC(=O)[C@H](CO)NC(=O)[C@H](Cc4c[nH]cn4)NC(=O)[C@H](CCC(=O)O)NC3=O)C(=O)N[C@@H](CCCNC(=N)N)C(=O)N[C@@H](CCCCN)C(=O)N[C@@H]([C@@H](C)O)C(=O)N2)NC(=O)[C@H](CCCNC(=N)N)NC(=O)[C@H](CO)NC(=O)[C@H](CCCCN)NC(=O)[C@@H]2CCCN2C(=O)[C@H]([C@@H](C)CC)NC(=O)[C@H]([C@@H](C)O)NC(=O)[C@H](CC(=O)O)NC1=O` [[Lys16, Glu18]ShK-amide], the results for the IC50 (in assay [1]; on hKv1.3; in assay [2]) were 0.119 nM, 0.065 nM and 0.234 nM, respectively.
